Publication PMC6366423 (Journal of Enzyme Inhibition and Medicinal Chemistry, 2019)

Assays:
[1] = Oxygen radical absorbance capacity assay (ORAC-FL); details: Trolox equivalents (TE), mean (n = 3) ± SD
hMAOA = target: T1, hMAOA (Homo sapiens, UniProt P21397); test: MAO activity assay (kynuramine, HPLC-MS); format: biochemical; details: for inhibition at 10 µM: read-out: hMAOA enzymatic inhibition (%)
T1 sequence (P21397 1-527): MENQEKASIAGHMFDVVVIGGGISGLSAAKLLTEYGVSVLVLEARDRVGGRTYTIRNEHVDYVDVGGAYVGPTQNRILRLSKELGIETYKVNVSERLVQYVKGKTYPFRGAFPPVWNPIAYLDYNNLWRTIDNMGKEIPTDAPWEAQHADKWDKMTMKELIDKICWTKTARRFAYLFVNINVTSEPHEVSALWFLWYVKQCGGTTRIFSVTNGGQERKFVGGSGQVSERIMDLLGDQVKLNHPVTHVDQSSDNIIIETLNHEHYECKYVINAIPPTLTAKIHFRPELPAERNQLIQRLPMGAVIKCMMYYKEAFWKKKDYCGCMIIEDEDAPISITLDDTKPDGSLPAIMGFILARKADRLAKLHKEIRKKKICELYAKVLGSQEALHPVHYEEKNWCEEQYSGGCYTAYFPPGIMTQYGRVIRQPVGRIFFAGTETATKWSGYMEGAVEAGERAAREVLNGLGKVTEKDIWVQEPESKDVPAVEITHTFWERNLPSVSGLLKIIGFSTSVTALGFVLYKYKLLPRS

eqBuChE = target: T2, eqBuChE (Equus caballus, UniProt P81908); test: biochemical; format: biochemical, equine; details: for IC50: mean ± SEM
T2 construct: eqBuChE (purified from equine serum); from tissue; host or cells: equine serum
T2 sequence (P81908 whole entry): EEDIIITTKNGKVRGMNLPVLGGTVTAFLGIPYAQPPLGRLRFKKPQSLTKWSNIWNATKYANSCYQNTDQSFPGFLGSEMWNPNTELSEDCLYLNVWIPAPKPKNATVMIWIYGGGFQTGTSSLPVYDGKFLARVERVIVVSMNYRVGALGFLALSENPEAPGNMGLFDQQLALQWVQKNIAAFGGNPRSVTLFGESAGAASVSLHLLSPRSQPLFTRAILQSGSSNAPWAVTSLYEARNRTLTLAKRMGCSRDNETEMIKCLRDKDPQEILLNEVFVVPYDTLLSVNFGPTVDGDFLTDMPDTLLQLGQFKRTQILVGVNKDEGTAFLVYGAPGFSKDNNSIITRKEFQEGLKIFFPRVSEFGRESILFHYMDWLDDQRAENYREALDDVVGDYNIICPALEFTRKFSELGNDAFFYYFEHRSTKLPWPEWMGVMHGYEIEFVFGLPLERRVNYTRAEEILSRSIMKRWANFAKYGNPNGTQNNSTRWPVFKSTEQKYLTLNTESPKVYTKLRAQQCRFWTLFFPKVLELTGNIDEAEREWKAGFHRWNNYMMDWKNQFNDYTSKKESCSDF
Description: (§1) Inhibition of EeAChE and eqBuChE of hybrids 14a–p was carried out with EeAChE (type VI-S, purified from Electrophorus electricus) and eqBuChE (purified from equine serum) using Ellman’s protocol. Briefly, the reaction was performed in a final volume of 3 ml of a phosphate-buffered solution (0.1 M) at pH = 8.0 containing 5,5’-dithiobis-2-nitrobenzoic acid (DTNB) (2.625 μL, 0.35 mM), EeAChE (29 μl, 0.035 U/mL) or eqBuChE (60 μl, 0.05 U/mL), Bovine Albumin Serum phosphate-buffered solution (40 μL 1% w/v), and tested compound (3 µL). After 10 min of incubation, the substrate, AcTCh) iodide or butyrylthiocholine (BuTCh) iodide, was added, and the reaction was incubated for an additional 15 min.

hMAOB = target: T3, hMAOB (Homo sapiens, UniProt P27338); test: MAO activity assay (kynuramine, HPLC-MS); format: biochemical; details: for inhibition at 10 µM: read-out: hMAOB enzymatic inhibition (%); for IC50: IC50 hMAOB, mean ± SEM
T3 sequence (P27338 1-520): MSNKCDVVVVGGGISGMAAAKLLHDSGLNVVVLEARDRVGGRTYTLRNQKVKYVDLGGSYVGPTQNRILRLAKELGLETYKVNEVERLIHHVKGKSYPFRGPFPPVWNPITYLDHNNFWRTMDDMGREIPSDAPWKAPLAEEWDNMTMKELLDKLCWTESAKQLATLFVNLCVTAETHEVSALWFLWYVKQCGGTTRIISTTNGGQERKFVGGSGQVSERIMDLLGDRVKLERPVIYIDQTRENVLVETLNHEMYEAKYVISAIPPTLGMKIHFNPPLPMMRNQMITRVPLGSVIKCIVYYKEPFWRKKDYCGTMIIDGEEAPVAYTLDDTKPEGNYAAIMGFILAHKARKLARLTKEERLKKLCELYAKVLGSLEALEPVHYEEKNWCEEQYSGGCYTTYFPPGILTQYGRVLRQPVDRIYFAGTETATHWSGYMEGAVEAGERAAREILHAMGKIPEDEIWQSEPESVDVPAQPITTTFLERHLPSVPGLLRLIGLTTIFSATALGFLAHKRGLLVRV

EeAChE = target: T4, EeAChE (Electrophorus electricus, UniProt O42275); test: biochemical; details: for inhibition at 10 µM: read-out: EeAChE enzymatic inhibition (%)
T4 construct: EeAChE (type VI-S, purified from Electrophorus electricus); tissue type VI-S
T4 sequence (O42275 24-633): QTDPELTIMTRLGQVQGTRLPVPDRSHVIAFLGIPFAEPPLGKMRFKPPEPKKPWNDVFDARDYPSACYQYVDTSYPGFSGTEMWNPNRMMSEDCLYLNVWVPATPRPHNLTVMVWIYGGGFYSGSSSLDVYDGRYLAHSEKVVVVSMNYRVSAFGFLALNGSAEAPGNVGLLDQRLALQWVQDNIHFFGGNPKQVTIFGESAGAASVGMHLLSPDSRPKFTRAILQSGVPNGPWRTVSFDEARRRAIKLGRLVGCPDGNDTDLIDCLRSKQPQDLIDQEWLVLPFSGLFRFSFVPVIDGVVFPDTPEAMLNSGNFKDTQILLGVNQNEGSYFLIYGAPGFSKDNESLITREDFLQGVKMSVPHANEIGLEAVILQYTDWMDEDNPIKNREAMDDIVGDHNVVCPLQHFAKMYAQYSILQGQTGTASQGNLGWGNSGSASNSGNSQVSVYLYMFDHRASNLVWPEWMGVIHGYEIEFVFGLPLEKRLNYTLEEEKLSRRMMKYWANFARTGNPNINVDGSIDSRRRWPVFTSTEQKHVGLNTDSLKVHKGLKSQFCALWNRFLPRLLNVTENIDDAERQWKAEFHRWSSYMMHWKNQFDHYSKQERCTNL
Description: as §1

hAChE = target: T5, hAChE (Homo sapiens, UniProt P22303); test: biochemical; format: biochemical; details: for inhibition at 10 µM: read-out: hAChE enzymatic inhibition (%); for IC50: mean ± SEM
T5 construct: purchased Sigma Aldrich; host or cells: HEK 293
T5 sequence (P22303 32-614): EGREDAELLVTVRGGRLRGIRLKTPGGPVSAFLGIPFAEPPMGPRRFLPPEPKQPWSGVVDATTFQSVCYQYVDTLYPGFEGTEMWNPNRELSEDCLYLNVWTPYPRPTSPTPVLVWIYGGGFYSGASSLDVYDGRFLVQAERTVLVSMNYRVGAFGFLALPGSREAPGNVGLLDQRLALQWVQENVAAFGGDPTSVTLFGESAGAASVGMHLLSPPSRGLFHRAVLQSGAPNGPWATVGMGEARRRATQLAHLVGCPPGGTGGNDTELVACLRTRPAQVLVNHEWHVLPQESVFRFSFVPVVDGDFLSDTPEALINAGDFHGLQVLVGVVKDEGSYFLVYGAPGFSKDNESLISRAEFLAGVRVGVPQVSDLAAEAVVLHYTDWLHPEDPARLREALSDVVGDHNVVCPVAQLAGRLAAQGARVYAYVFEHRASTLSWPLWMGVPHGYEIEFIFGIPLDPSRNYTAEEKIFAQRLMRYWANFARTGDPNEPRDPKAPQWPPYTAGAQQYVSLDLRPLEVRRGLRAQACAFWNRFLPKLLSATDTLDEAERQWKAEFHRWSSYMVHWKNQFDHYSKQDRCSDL

hBuChE = target: T6, hBuChE (Homo sapiens, UniProt P06276); test: biochemical; format: biochemical; details: for IC50: mean ± SEM; for inhibition at 10 µM: read-out: hBuChE enzymatic inhibition (%)
T6 construct: hBuChE from human serum (Sigma Aldrich, Madrid, Spain); purchased Sigma Aldrich; host or cells: human serum
T6 sequence (P06276 29-602): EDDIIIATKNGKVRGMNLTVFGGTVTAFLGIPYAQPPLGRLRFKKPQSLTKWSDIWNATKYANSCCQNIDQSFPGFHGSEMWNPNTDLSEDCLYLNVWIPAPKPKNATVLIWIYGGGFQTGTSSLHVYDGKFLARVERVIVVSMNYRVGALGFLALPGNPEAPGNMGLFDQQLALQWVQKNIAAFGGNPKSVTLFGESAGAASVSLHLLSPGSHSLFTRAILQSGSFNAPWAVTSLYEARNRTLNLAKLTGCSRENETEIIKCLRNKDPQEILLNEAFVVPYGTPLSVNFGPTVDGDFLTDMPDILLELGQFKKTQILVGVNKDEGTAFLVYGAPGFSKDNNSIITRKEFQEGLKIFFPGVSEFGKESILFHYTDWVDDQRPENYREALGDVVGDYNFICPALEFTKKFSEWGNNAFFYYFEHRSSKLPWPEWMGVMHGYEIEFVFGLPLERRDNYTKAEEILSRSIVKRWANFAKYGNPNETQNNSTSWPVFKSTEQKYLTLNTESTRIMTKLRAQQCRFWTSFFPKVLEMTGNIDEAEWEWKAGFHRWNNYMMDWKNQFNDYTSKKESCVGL

Structure (SMILES) | ORAC (Eq Trolox) [1] [Eq Trolox] | IC50 (hMAOA) [nM] | IC50 (eqBuChE) [nM] | inhibition at 10 µM (hMAOB) [%] | inhibition at 10 µM (EeAChE) [%] | inhibition at 10 µM (hAChE; at 10 μM) [%] | IC50 (hBuChE) [nM] | inhibition at 10 µM (hMAOA) [%] | inhibition at 10 µM (hBuChE) [%] | IC50 (EeAChE; mean ± SEM) [nM] | IC50 (hAChE) [nM] | IC50 (hMAOB) [nM] | hAChE, fold less active than Donepezil (hAChE) [fold] | eqBuChE potency, fold more potent than Donepezil (eqBuChE) [fold] | ORAC (Eq Trolox) ([1]; listed as [14]i) | ORAC (Eq Trolox) ([1]; listed as [14]k) | hAChE enzymatic inhibition (%) (hAChE; at 10 μM) | IC50 (EeAChE; values given in nM) [nM] | ORAC (Eq Trolox) ([1]; listed as [14]n) | hBuChE, fold less active than Tacrine (hBuChE) [fold]
O=C(CN(CC1CCN(Cc2ccccc2)CC1)C(=O)c1cc(=O)c2ccccc2o1)NCCc1c[nH]c2ccccc12 [14a] | 6.28 ± 0.12 | 2000 | 496 ± 7.07 | < 40 | < 50 | < 50 | 1170 |  |  |  |  |  |  |  |  |  |  |  |  | 
COc1ccc2[nH]cc(CCNC(=O)CN(CC3CCN(Cc4ccccc4)CC3)C(=O)c3cc(=O)c4ccccc4o3)c2c1 [14b] | 6.24 ± 0.05 |  | 636 ± 11.6 | < 40 | < 50 | < 50 |  | < 40 | < 50 |  |  |  |  |  |  |  |  |  |  | 
CC(C)Oc1ccc2[nH]cc(CCNC(=O)CN(CC3CCN(Cc4ccccc4)CC3)C(=O)c3cc(=O)c4ccccc4o3)c2c1 [14c] | 6.11 ± 0.07 |  | 246 ± 9.91 | < 40 | < 50 | < 50 |  | < 40 | < 50 |  |  |  |  |  |  |  |  |  |  | 
CCCOc1ccc2[nH]cc(CCNC(=O)CN(CC3CCN(Cc4ccccc4)CC3)C(=O)c3cc(=O)c4ccccc4o3)c2c1 [14d] | 6.76 ± 0.09 |  | 46.9 ± 3.41 |  | < 50 | < 50 |  | < 40 | < 50 |  |  |  |  |  |  |  |  |  |  | 
O=C(CN(CCC1CCN(Cc2ccccc2)CC1)C(=O)c1cc(=O)c2ccccc2o1)NCCc1c[nH]c2ccccc12 [14e] | 6.52 ± 0.37 |  | 29.6 ± 2.38 | < 40 |  |  | 33.3 ± 0.55 | < 40 |  | 1430 ± 50 | 2620 ± 530 |  |  |  |  |  |  |  |  | 
COc1ccc2[nH]cc(CCNC(=O)CN(CCC3CCN(Cc4ccccc4)CC3)C(=O)c3cc(=O)c4ccccc4o3)c2c1 [14f] | 6.13 ± 0.09 |  | 26 ± 2.37 |  |  |  | 271.8 ± 1.75 | < 40 |  |  | 360 ± 160 | 80600 ± 13900 | 15 |  |  |  |  |  |  | 
CC(C)Oc1ccc2[nH]cc(CCNC(=O)CN(CCC3CCN(Cc4ccccc4)CC3)C(=O)c3cc(=O)c4ccccc4o3)c2c1 [14g] | 5.05 ± 0.15 |  | 6.29 ± 0.73 | < 40 |  |  | 25 ± 0.2 | < 40 |  | 1050 ± 60 | 2000 ± 70 |  |  | 133 |  |  |  |  |  | 
CCCOc1ccc2[nH]cc(CCNC(=O)CN(CCC3CCN(Cc4ccccc4)CC3)C(=O)c3cc(=O)c4ccccc4o3)c2c1 [14h] | 6.07 ± 0.02 |  | 6.76 ± 0.49 | < 40 |  |  | 63.9 ± 2.55 | < 40 |  | 850 ± 20 | 2040 ± 660 |  |  | 133 |  |  |  |  |  | 
O=C(CN(CCCC1CCN(Cc2ccccc2)CC1)C(=O)c1cc(=O)c2ccccc2o1)NCCc1c[nH]c2ccccc12 [14i] | 6.92 |  | 50.1 ± 5.19 | < 40 |  | < 50 |  | < 40 | < 50 | 260 ± 10 |  |  |  |  | 6.92 ± 0.32 |  |  |  |  | 
COc1ccc2[nH]cc(CCNC(=O)CN(CCCC3CCN(Cc4ccccc4)CC3)C(=O)c3cc(=O)c4ccccc4o3)c2c1 [14j] | 3.31 ± 0.10 |  | 37.1 ± 0.46 | < 40 |  | < 50 |  | < 40 | < 50 | 270 |  |  |  |  |  |  |  |  |  | 
CC(C)Oc1ccc2[nH]cc(CCNC(=O)CN(CCCC3CCN(Cc4ccccc4)CC3)C(=O)c3cc(=O)c4ccccc4o3)c2c1 [14k] | 2.27 | 2990 ± 160 | 18.21 ± 0.18 |  |  |  | 34.9 ± 0.85 |  |  | 360 ± 10 |  | 15200 |  |  |  | 2.27 ± 0.37 | – ^b |  |  | 
CCCOc1ccc2[nH]cc(CCNC(=O)CN(CCCC3CCN(Cc4ccccc4)CC3)C(=O)c3cc(=O)c4ccccc4o3)c2c1 [14l] | 2.44 ± 0.16 |  | 9.03 ± 0.18 | < 40 |  | < 50 |  | < 40 | < 50 | 380 ± 10 |  |  |  |  |  |  |  |  |  | 
O=C(CN(CCCCC1CCN(Cc2ccccc2)CC1)C(=O)c1cc(=O)c2ccccc2o1)NCCc1c[nH]c2ccccc12 [14m] | 2.97 ± 0.16 |  | 355 ± 8.41 | < 40 |  | < 50 |  | < 40 | < 50 | 60 |  |  |  |  |  |  |  | 58.2 |  | 
COc1ccc2[nH]cc(CCNC(=O)CN(CCCCC3CCN(Cc4ccccc4)CC3)C(=O)c3cc(=O)c4ccccc4o3)c2c1 [14n, N-(4–(1-benzylpiperidin-4-yl)butyl)-N-(2-((2–(5-methoxy-1H-indol-3-yl)ethyl)amino)-2-oxoethyl)-4-oxo-4H-chromene-2-carboxamide] | 3.04 | 2780 ± 120 | 43.4 ± 1.37 |  |  |  | 11.9 ± 0.05 |  |  | 480 ± 10 | 1730 ± 340 | 21300 |  |  |  |  |  |  | 3.04 ± 0.36 | 2
Nc1c2c(nc3ccccc13)CCCC2 [Tacrine, reference compound] | 0.2 ± 0.1 |  |  |  |  |  |  |  |  |  |  |  |  |  |  |  |  |  |  | 
